Measurements as given in EPA's CvTdb concentration-time database.

Key:
[1] = system: Rat; test: concentration in liver after dosing; conditions: 144 h; dosed: Tamoxifen; 300 ug/mL; oral; Female; F344
[2] = system: Rat; test: concentration in liver after dosing; conditions: 144 h; dosed: Tamoxifen; 300 ug/mL; oral; Female; F344; remark: listed apart in the source
[3] = system: Rat; test: concentration in liver after dosing; conditions: 72 h; dosed: Tamoxifen citrate; 300 ug/mL; oral; Female; F344
[4] = system: Rat; test: concentration in adipose after dosing; conditions: 144 h; dosed: Tamoxifen; 300 ug/mL; oral; Female; F344
[5] = system: Rat; test: concentration in liver after dosing; conditions: 72 h; dosed: Tamoxifen citrate; 100 ug/mL; oral; Female; F344
[6] = system: Rat; test: concentration in adipose after dosing; conditions: 144 h; dosed: Tamoxifen; 300 ug/mL; oral; Female; F344; remark: listed apart in the source
[7] = system: Rat; test: concentration in adipose after dosing; conditions: 72 h; dosed: Tamoxifen citrate; 100 ug/mL; oral; Female; F344
[8] = system: Rat; test: concentration in plasma after dosing; conditions: 300 ug/mL, oral, Female, F344
[9] = system: Rat; test: concentration in adipose after dosing; conditions: 72 h; dosed: Tamoxifen citrate; 300 ug/mL; oral; Female; F344
[10] = system: Rat; test: concentration in liver after dosing; conditions: 144 h; dosed: Tamoxifen citrate; 100 ug/mL; oral; Female; F344
[11] = system: Rat; test: concentration in adipose after dosing; conditions: 144 h; dosed: Tamoxifen citrate; 100 ug/mL; oral; Female; F344
[12] = system: Rat; test: concentration in adipose after dosing; conditions: 144 h; dosed: Tamoxifen; 300 ug/mL; oral; Female; F344; remark: listed apart in the source
[13] = system: Rat; test: concentration in liver after dosing; conditions: oral, Female, F344
[14] = system: Rat; test: concentration in liver after dosing; conditions: 144 h; dosed: Tamoxifen; 300 ug/mL; oral; Female; F344; remark: listed apart in the source
[15] = system: Rat; test: concentration in liver after dosing; conditions: 144 h; dosed: Tamoxifen citrate; 300 ug/mL; oral; Female; F344
[16] = system: Rat; test: concentration in adipose after dosing; conditions: 72 h; dosed: Tamoxifen citrate; 300 ug/mL; oral; Female; F344; remark: listed apart in the source
[17] = system: Rat; test: concentration in liver after dosing; conditions: 144 h; dosed: Tamoxifen citrate; 300 ug/mL; oral; Female; F344; remark: listed apart in the source
[18] = system: Rat; test: concentration in plasma after dosing; conditions: dosed: Tamoxifen, 300 ug/mL, oral, Female, F344
[19] = system: Rat; test: concentration in liver after dosing; conditions: 144 h; dosed: Tamoxifen citrate; 100 ug/mL; oral; Female; F344; remark: listed apart in the source
[20] = system: Rat; test: concentration in plasma after dosing; conditions: dosed: Tamoxifen, 300 ug/mL, oral, Female, F344; remark: listed apart in the source
[21] = system: Rat; test: concentration in liver after dosing; conditions: 144 h; dosed: Tamoxifen; 300 ug/mL; oral; Female; F344; remark: listed apart in the source
[22] = system: Rat; test: concentration in liver after dosing; conditions: 144 h; dosed: Tamoxifen citrate; 300 ug/mL; oral; Female; F344; remark: listed apart in the source
[23] = system: Rat; test: concentration in liver after dosing; conditions: 144 h; dosed: Tamoxifen; 300 ug/mL; oral; Female; F344; remark: listed apart in the source
[24] = system: Rat; test: concentration in adipose after dosing; conditions: 144 h; dosed: Tamoxifen; 300 ug/mL; oral; Female; F344; remark: listed apart in the source
[25] = system: Rat; test: concentration in adipose after dosing; conditions: oral, Female, F344
[26] = system: Rat; test: concentration in plasma after dosing; conditions: dosed: Tamoxifen citrate, 300 ug/mL, oral, Female, F344
[27] = system: Rat; test: concentration in adipose after dosing; conditions: 72 h; dosed: Tamoxifen citrate; 100 ug/mL; oral; Female; F344; remark: listed apart in the source
[28] = system: Rat; test: concentration in plasma after dosing; conditions: dosed: Tamoxifen citrate, 300 ug/mL, oral, Female, F344; remark: listed apart in the source
[29] = system: Rat; test: concentration in liver after dosing; conditions: 72 h; dosed: Tamoxifen citrate; 300 ug/mL; oral; Female; F344; remark: listed apart in the source
[30] = system: Rat; test: concentration in plasma after dosing; conditions: dosed: Tamoxifen, 300 ug/mL, oral, Female, F344; remark: listed apart in the source
[31] = system: Rat; test: concentration in adipose after dosing; conditions: 72 h; dosed: Tamoxifen; 300 ug/mL; oral; Female; F344
[32] = system: Rat; test: concentration in liver after dosing; conditions: 72 h; dosed: Tamoxifen; 300 ug/mL; oral; Female; F344
[33] = system: Rat; test: concentration in liver after dosing; conditions: 72 h; dosed: Tamoxifen citrate; 100 ug/mL; oral; Female; F344; remark: listed apart in the source
[34] = system: Rat; test: concentration in liver after dosing; conditions: 72 h; dosed: Tamoxifen; 300 ug/mL; oral; Female; F344; remark: listed apart in the source
[35] = system: Rat; test: concentration in adipose after dosing; conditions: 144 h; dosed: Tamoxifen citrate; 300 ug/mL; oral; Female; F344
[36] = system: Rat; test: concentration in liver after dosing; conditions: 144 h; dosed: Tamoxifen citrate; 300 ug/mL; oral; Female; F344; remark: listed apart in the source
[37] = system: Rat; test: concentration in plasma after dosing; conditions: dosed: Tamoxifen citrate, 300 ug/mL, oral, Female, F344; remark: listed apart in the source
[38] = system: Rat; test: concentration in liver after dosing; conditions: 144 h; dosed: Tamoxifen citrate; 300 ug/mL; oral; Female; F344; remark: listed apart in the source
[39] = system: Rat; test: concentration in adipose after dosing; conditions: 144 h; dosed: Tamoxifen citrate; 300 ug/mL; oral; Female; F344; remark: listed apart in the source
[40] = system: Rat; test: concentration in adipose after dosing; conditions: 144 h; dosed: Tamoxifen citrate; 300 ug/mL; oral; Female; F344; remark: listed apart in the source
[41] = system: Rat; test: concentration in adipose after dosing; conditions: 144 h; dosed: Tamoxifen citrate; 300 ug/mL; oral; Female; F344; remark: listed apart in the source
[42] = system: Rat; test: concentration in adipose after dosing; conditions: 144 h; dosed: Tamoxifen citrate; 300 ug/mL; oral; Female; F344; remark: listed apart in the source
[43] = system: Rat; test: concentration in adipose after dosing; conditions: 72 h; dosed: Tamoxifen; 300 ug/mL; oral; Female; F344; remark: listed apart in the source
[44] = system: Rat; test: concentration in adipose after dosing; conditions: 144 h; dosed: Tamoxifen; 300 ug/mL; oral; Female; F344; remark: listed apart in the source

CC/C(=C(\c1ccccc1)c1ccc(OCCN(C)C)cc1)c1ccccc1 [Tamoxifen]
Conditions | concentration in adipose [ng/mL] | concentration in liver [ng/g]
[1] | – | 37.2
[2] | – | 22.8
[3] | – | 21.1
[4] | 151 | –
[5] | – | 13
[6] | 55.7 | –
[7] | 14.8 | –
[9] | 31.2 | –
[10] | – | 16.3
[11] | 10.4 | –
[12] | 44.5 | –
[14] | – | 239
[15] | – | 58.4
[16] | 27.4 | –
[17] | – | 22.8
[19] | – | 13.9
[21] | – | 58.4
[22] | – | 37.2
[23] | – | 25.3
[24] | 30.4 | –
[27] | 5.58 | –
[29] | – | 30.5
[31] | 27.4 | –
[32] | – | 21.1
[33] | – | 5.85
[34] | – | 30.5
[35] | 40.1 | –
[36] | – | 239
[38] | – | 25.3
[39] | 44.5 | –
[40] | 30.4 | –
[41] | 55.7 | –
[42] | 151 | –
[43] | 31.2 | –
[44] | 40.1 | –

concentration in plasma [ng/mL], [8]
Conditions | 0 h | 0.25 h | 0.5 h | 1 h | 2 h | 4 h | 8 h | 16 h
dosed: Tamoxifen | 2.13 | 3.18 | 2.95 | 2.9 | 4.38 | 4.12 | 4.6 | 2.42
dosed: Tamoxifen citrate | 2.13 | 3.18 | 2.95 | 2.9 | 4.38 | 4.12 | 4.6 | 2.42

Conditions | concentration in adipose, [25] [ng/mL] | concentration in liver, [13] [ng/g]
72 h, dosed: Tamoxifen citrate, 100 ug/mL | 7.52 | 7.61
72 h, dosed: Tamoxifen citrate, 300 ug/mL | 33.6 | 39.5
72 h, dosed: Tamoxifen, 300 ug/mL | 33.6 | 39.5
144 h, dosed: Tamoxifen citrate, 100 ug/mL | 9.5 | 13.4
144 h, dosed: Tamoxifen citrate, 300 ug/mL | 31.5 | 48.3
144 h, dosed: Tamoxifen, 300 ug/mL | 31.5 | 48.3

concentration in plasma [ng/mL]
Conditions | [18] | [20] | [26] | [28] | [30] | [37]
0.25 h | 11.9 | 15.4 | 21.9 | 15.4 | 21.9 | 11.9
0.5 h | 8.96 | 12.2 | 10.2 | 12.2 | 10.2 | 8.96
1 h | 7.35 | 9.33 | – | 9.33 | – | 7.35
2 h | 5.81 | 8.41 | 6.23 | 8.41 | 6.23 | 5.81
4 h | – | 4.44 | 4.51 | 4.44 | 4.51 | –
12 h | – | – | 2.66 | – | 2.66 | –
